Assay: Cycle 1 normal organ dosimetry (SPECT/CT, TIACs, OLINDA 2.2.3)
Assay type: in vivo, human
Conditions: for Absorbed Dose, Mean / Absorbed Dose, max / Absorbed Dose, median / Absorbed Dose, min: Cycle 1, n = 26; for Absorbed Dose in Cycle 1, Mean / Absorbed Dose in Cycle 1, max / Absorbed Dose in Cycle 1, min: N = 16 patients imaged at cycle 1 and 3
Experimental: This Example presents the biodistribution, dosimetry, and pharmacokinetics (PK) results of a PK/Dosimetry sub-study performed as part of a Phase III trial. Twenty-seven (27) patients were administered a target activity of 7.4±10% GBq of ^177Lu-PSMA-I&T and underwent single photon emission computed tomography (SPECT)/computed tomography (CT) imaging at four timepoints (4 h, 24 h, 48 h, and 168 h). Image data was analysed to compute time-activity curves (TACs) and subsequently time-integrated activity coefficients (TIACs) in each organ of interest and in organs showing appreciable and meaningful ^177Lu-PSMA-I&T activity. Organ Level Internal Dose Assessment (OLINDA 2.2.3) was used to compute organ and whole body absorbed radiation doses for each patient.
All participating sites underwent a rigorous site setup process during which all dose calibrators, scanners, and gamma counters used in the sub-study were calibrated. Sites were allowed to enroll patients in the sub-study only after the completion and approval of all site setup processes by Invicro. Patients underwent SPECT/CT imaging, with anatomical coverage typically extending from the salivary glands to the pelvis, following the administration of a targeted 7.4±10% GBq of ^177Lu-PSMA-I&T at cycle 1. SPECT/CT imaging was performed at four timepoints: 4 h, 24 h, 48 h, and 168 h post-injection. Additionally, a subset of patients imaged at Cycle 1 (16 out of 27), were also imaged at Cycle 3 (Table 2).
In general, raw projection data was acquired into a 128×128 matrix with medium energy general purpose (MEGP) collimation using a step and shoot acquisition mode, acquiring 60 projections per detector (180 degrees rotation per detector), 20 seconds per projection, with an acquisition zoom of 1.0, and a 20% (±10%) energy window centered over 208 keV.
A low-dose CT scan was performed prior to beginning the SPECT scan for attenuation correction. Sites were instructed to use the Institutional standard parameters for acquisition of the low-dose CT. Institutional standard reconstruction parameters were used. Scatter correction was required to be applied using a 20% (±10%) scatter window centered over 170 keV.
The imaging data was analyzed using Invicro's VivoQuant software, a validated software used in a 21 CFR § 11-compliant workflow. The general quantification approach was based on the principles detailed in the Medical Internal Radiation Dose (MIRD) Pamphlet No. 16, No 23, and No 26 as appropriate.
SPECT images were calibrated in units of Becquerel (Bq) using a calibration factor derived from a source of known activity, measured during site set up with the same acquisition and reconstruction parameters employed for patient imaging. A patient-specific calibration factor was also derived at each clinical time point after acquisition of the patient SPECT/CT. As a quality control measure, if the patient-specific calibration factor differed by more than 10% from the site set up calibration factor, an investigation was conducted.
Volume of interest (VOI) (kidneys, bladder, liver, lumbar vertebrae L2-L4, lacrimal glands, salivary glands [parotid and submandibular glands], and whole body) were delineated on each dataset by a trained image analyst. […] Organs were segmented either by drawing the entire contour of the organ, or by placing a sphere in a representative region of the organ and then multiplying by the organ's effective mass (based on patient's height and weight). Segmentation methods for each organ are specified in Table 3 and were consistently applied to each patient.
Clearance of the radiopharmaceutical was derived from a data-appropriate fit of each organ's TAC. Depending on the TAC's shape, the data was fitted with the sum of one, two, or three exponentials, or using a rise and fall model. Fitting was performed with in-house Python software. TIACs were calculated through analytical integration of the curve fit extrapolated to infinity. […]

[1] = Lacrimal Glands (OLINDA sphere model)

O=C(O)CC[C@H](NC(=O)N[C@@H](CCCCNC(=O)CCCCCCC(=O)NCCCC[C@@H](NC(=O)[C@@H](Cc1ccccc1)NC(=O)[C@@H](Cc1ccc(O)c(I)c1)NC(=O)CC[C@H](C(=O)O)N1CCN(CC(=O)O)CCN(CC(=O)O)CCN(CC(=O)O)CC1)C(=O)O)C(=O)O)C(=O)O [^177Lu-PSMA-I&T, (3S,7 S,26R,29R,32R,37R)-29-benzyl-32-(4-hydroxy-3-iodobenzyl)-5,13,20,28,31,34-hexaoxo-37-(4,7,10-tris(carboxymethyl)-1,4,7,10-tetraazacyclododecan-1-yl)-4,6,12,21,27,30,33-heptaazaheptatriacontane-1,3,7,26,37-pentacarboxylic acid; lutetium-177 (III), metal not drawn]
Absorbed Dose, Mean (Adrenals): 0.02 Gy/GBq | Absorbed Dose, max (Adrenals): 0.08 Gy/GBq | Absorbed Dose, median (Adrenals): 0.02 Gy/GBq | Absorbed Dose, min (Adrenals): 0.01 Gy/GBq | Absorbed Dose in Cycle 1, Mean (Adrenals): 0.02 Gy/GBq | Absorbed Dose in Cycle 1, max (Adrenals): 0.08 Gy/GBq | Absorbed Dose in Cycle 1, min (Adrenals): 0.01 Gy/GBq | Absorbed Dose, Mean (Brain): 0.01 Gy/GBq | Absorbed Dose, max (Brain): 0.07 Gy/GBq | Absorbed Dose, median (Brain): 0.01 Gy/GBq | Absorbed Dose, min (Brain): 0.00 Gy/GBq | Absorbed Dose in Cycle 1, Mean (Brain): 0.01 Gy/GBq | Absorbed Dose in Cycle 1, max (Brain): 0.07 Gy/GBq | Absorbed Dose in Cycle 1, min (Brain): 0.00 Gy/GBq | Absorbed Dose, Mean (Esophagus): 0.02 Gy/GBq | Absorbed Dose, max (Esophagus): 0.07 Gy/GBq | Absorbed Dose, median (Esophagus): 0.01 Gy/GBq | Absorbed Dose, min (Esophagus): 0.00 Gy/GBq | Absorbed Dose in Cycle 1, Mean (Esophagus): 0.01 Gy/GBq | Absorbed Dose in Cycle 1, max (Esophagus): 0.07 Gy/GBq | Absorbed Dose in Cycle 1, min (Esophagus): 0.00 Gy/GBq | Absorbed Dose, Mean (Eyes): 0.01 Gy/GBq | Absorbed Dose, max (Eyes): 0.07 Gy/GBq | Absorbed Dose, median (Eyes): 0.01 Gy/GBq | Absorbed Dose, min (Eyes): 0.00 Gy/GBq | Absorbed Dose in Cycle 1, Mean (Eyes): 0.01 Gy/GBq | Absorbed Dose in Cycle 1, max (Eyes): 0.07 Gy/GBq | Absorbed Dose in Cycle 1, min (Eyes): 0.00 Gy/GBq | Absorbed Dose, Mean (Gallbladder wall): 0.02 Gy/GBq | Absorbed Dose, max (Gallbladder wall): 0.07 Gy/GBq | Absorbed Dose, median (Gallbladder wall): 0.01 Gy/GBq | Absorbed Dose, min (Gallbladder wall): 0.00 Gy/GBq | Absorbed Dose in Cycle 1, Mean (Gallbladder wall): 0.02 Gy/GBq | Absorbed Dose in Cycle 1, max (Gallbladder wall): 0.07 Gy/GBq | Absorbed Dose in Cycle 1, min (Gallbladder wall): 0.00 Gy/GBq | Absorbed Dose, Mean (Heart wall): 0.02 Gy/GBq | Absorbed Dose, max (Heart wall): 0.07 Gy/GBq | Absorbed Dose, median (Heart wall): 0.01 Gy/GBq | Absorbed Dose, min (Heart wall): 0.00 Gy/GBq | Absorbed Dose in Cycle 1, Mean (Heart wall): 0.01 Gy/GBq | Absorbed Dose in Cycle 1, max (Heart wall): 0.07 Gy/GBq | Absorbed Dose in Cycle 1, min (Heart wall): 0.00 Gy/GBq | Absorbed Dose, Mean (Kidneys): 0.41 Gy/GBq | Absorbed Dose, max (Kidneys): 0.81 Gy/GBq | Absorbed Dose, median (Kidneys): 0.37 Gy/GBq | Absorbed Dose, min (Kidneys): 0.17 Gy/GBq | Absorbed Dose in Cycle 1, Mean (Kidneys): 0.41 Gy/GBq | Absorbed Dose in Cycle 1, max (Kidneys): 0.81 Gy/GBq | Absorbed Dose in Cycle 1, min (Kidneys): 0.17 Gy/GBq | Absorbed Dose in Cycle 1, Mean [1]: 0.39 Gy/GBq | Absorbed Dose in Cycle 1, max [1]: 1.19 Gy/GBq | Absorbed Dose in Cycle 1, min [1]: 0.04 Gy/GBq | Absorbed Dose, Mean (Lacrimal Glands): 0.40 Gy/GBq | Absorbed Dose, max (Lacrimal Glands): 1.19 Gy/GBq | Absorbed Dose, median (Lacrimal Glands): 0.26 Gy/GBq | Absorbed Dose, min (Lacrimal Glands): 0.04 Gy/GBq | Absorbed Dose, Mean (Left colon): 0.47 Gy/GBq | Absorbed Dose, max (Left colon): 1.53 Gy/GBq | Absorbed Dose, median (Left colon): 0.41 Gy/GBq | Absorbed Dose, min (Left colon): 0.01 Gy/GBq | Absorbed Dose in Cycle 1, Mean (Left colon): 0.52 Gy/GBq | Absorbed Dose in Cycle 1, max (Left colon): 1.53 Gy/GBq | Absorbed Dose in Cycle 1, min (Left colon): 0.01 Gy/GBq | Absorbed Dose, Mean (Liver): 0.04 Gy/GBq | Absorbed Dose, max (Liver): 0.10 Gy/GBq | Absorbed Dose, median (Liver): 0.03 Gy/GBq | Absorbed Dose, min (Liver): 0.01 Gy/GBq | Absorbed Dose in Cycle 1, Mean (Liver): 0.04 Gy/GBq | Absorbed Dose in Cycle 1, max (Liver): 0.10 Gy/GBq | Absorbed Dose in Cycle 1, min (Liver): 0.01 Gy/GBq | Absorbed Dose, Mean (Lungs): 0.01 Gy/GBq | Absorbed Dose, max (Lungs): 0.07 Gy/GBq | Absorbed Dose, median (Lungs): 0.01 Gy/GBq | Absorbed Dose, min (Lungs): 0.00 Gy/GBq | Absorbed Dose in Cycle 1, Mean (Lungs): 0.01 Gy/GBq | Absorbed Dose in Cycle 1, max (Lungs): 0.07 Gy/GBq | Absorbed Dose in Cycle 1, min (Lungs): 0.00 Gy/GBq | Absorbed Dose, Mean (Osteogenic cells): 0.05 Gy/GBq | Absorbed Dose, max (Osteogenic cells): 0.29 Gy/GBq | Absorbed Dose, median (Osteogenic cells): 0.02 Gy/GBq | Absorbed Dose, min (Osteogenic cells): 0.00 Gy/GBq | Absorbed Dose in Cycle 1, Mean (Osteogenic cells): 0.04 Gy/GBq | Absorbed Dose in Cycle 1, max (Osteogenic cells): 0.19 Gy/GBq | Absorbed Dose in Cycle 1, min (Osteogenic cells): 0.00 Gy/GBq | Absorbed Dose, Mean (Pancreas): 0.02 Gy/GBq | Absorbed Dose, max (Pancreas): 0.07 Gy/GBq | Absorbed Dose, median (Pancreas): 0.01 Gy/GBq | Absorbed Dose, min (Pancreas): 0.00 Gy/GBq | Absorbed Dose in Cycle 1, Mean (Pancreas): 0.02 Gy/GBq | Absorbed Dose in Cycle 1, max (Pancreas): 0.07 Gy/GBq | Absorbed Dose in Cycle 1, min (Pancreas): 0.00 Gy/GBq | Absorbed Dose, Mean (Prostate): 0.02 Gy/GBq | Absorbed Dose, max (Prostate): 0.07 Gy/GBq | Absorbed Dose, median (Prostate): 0.01 Gy/GBq | Absorbed Dose, min (Prostate): 0.01 Gy/GBq
